The record followed here is ChEMBL document CHEMBL2384940, “Discovery of (R)-(2-fluoro-4-((-4-methoxyphenyl)ethynyl)phenyl) (3-hydroxypiperidin-1-yl)methanone (ML337), an mGlu3 selective and CNS penetrant negative allosteric modulator (NAM)” (J Med Chem, 2013).

Structures are written as SMILES. Values after ≈ are worked out from the molar mass of the structure shown. Active and inactive are the calls of the source. The rule behind the calls is not given here.

Data set [1] has as its target Metabotropic glutamate receptor 3 (Rattus norvegicus, UniProt P31422). The data set can be described thus: Negative allosteric modulation of rat mGlu3 receptor transfected in human TREX cells assessed as inhibition of glutamate-induced calcium mobilization after 2.5 mins. It counts as functional, cell-based.
The target of data set [2] is Metabotropic glutamate receptor 8 (Homo sapiens) (UniProt O00222). The data set can be described thus: Negative allosteric modulation of mGlu8 receptor (unknown origin) up to 30 uM.
Data set [3] deals with Metabotropic glutamate receptor 3 (Rattus norvegicus) (UniProt P31422). The data set can be described thus: Negative allosteric modulation of rat mGlu3 receptor transfected in human TREX cells assessed as non-competitive decrease in glutamate EC80. It counts as cell-based.
A further data set addresses T1, Cytochrome P450 1A2 (Homo sapiens, UniProt P05177).
T1 sequence (P05177 whole entry): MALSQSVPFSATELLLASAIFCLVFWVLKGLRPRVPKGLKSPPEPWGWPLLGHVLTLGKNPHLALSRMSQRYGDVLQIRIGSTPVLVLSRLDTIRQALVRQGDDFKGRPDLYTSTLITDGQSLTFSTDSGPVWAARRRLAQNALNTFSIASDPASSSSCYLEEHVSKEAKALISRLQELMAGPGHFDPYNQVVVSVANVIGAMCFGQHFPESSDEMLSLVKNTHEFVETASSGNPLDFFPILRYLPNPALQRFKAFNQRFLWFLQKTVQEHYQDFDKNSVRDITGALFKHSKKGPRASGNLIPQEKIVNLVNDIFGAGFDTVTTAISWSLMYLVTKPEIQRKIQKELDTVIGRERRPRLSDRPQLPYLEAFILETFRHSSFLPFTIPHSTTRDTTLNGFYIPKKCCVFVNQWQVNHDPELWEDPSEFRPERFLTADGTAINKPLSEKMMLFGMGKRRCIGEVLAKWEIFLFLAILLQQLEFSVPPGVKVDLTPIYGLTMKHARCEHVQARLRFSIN
The data set can be described thus: Inhibition of CYP1A2 in human liver microsomes using phenacetin as substrate incubated for 15 mins prior to NADPH addition measured after 8 mins by LC/MS/MS analysis. The data set is classed as ADME, Microsome.

Data set [4] deals with 5-hydroxytryptamine receptor 2B (Homo sapiens) (UniProt P41595). The data set can be described thus: Binding affinity to human 5-HT2B receptor at 10 uM by radioligand displacement assay relative to control. On the technique in general: Loss of bound radioactivity is the signal in a displacement assay; it reports binding, not function.
The next data set deals with Liver microsomes. The data set can be described thus: Metabolic stability in human liver microsomes at 1 uM. It counts as ADME, Microsome. (In general: Liver microsomes are vesicles of endoplasmic reticulum, rich in cytochrome P450 enzymes.)
For a further data set, the target named is Cytochrome P450 2D6 (Homo sapiens, UniProt P10635). The data set can be described thus: Inhibition of CYP2D6 in human liver microsomes using dextromethorphan as substrate incubated for 15 mins prior to NADPH addition measured after 8 mins by LC/MS/MS analysis. The data set is classed as ADME, Microsome.
The target in data set [5] is Metabotropic glutamate receptor 3 (Rattus norvegicus) (UniProt P31422). The data set can be described thus: Negative allosteric modulation of rat mGlu3 receptor transfected in human TREX cells assessed as inhibition of glutamate/LY379268-induced calcium mobilization. The data set is classed as functional, cell-based. A general note: A change in cytosolic calcium serves as a functional read-out for many receptors and channels.

Data set [6] concerns the target Metabotropic glutamate receptor 4 (Homo sapiens) (UniProt Q14833). The data set can be described thus: Negative allosteric modulation of mGlu4 receptor (unknown origin) up to 30 uM.
The target of data set [7] is Metabotropic glutamate receptor 6 (Homo sapiens) (UniProt O15303). The data set can be described thus: Negative allosteric modulation of mGlu6 receptor (unknown origin) up to 30 uM.
In data set [8] the target is Metabotropic glutamate receptor 3 (Rattus norvegicus) (UniProt P31422). The data set can be described thus: Negative allosteric modulation of rat mGlu3 receptor transfected in human TREX cells after 2.5 mins by calcium mobilization assay relative to glutamate. It counts as functional, cell-based. The arrangement: concentration or dose not given beside the values.
Data set [9] has as its system Plasma. The data set can be described thus: Fraction unbound in rat plasma at 5 uM after 4 hrs by LC/MS/MS analysis. The data set is classed as ADME, cell-free.
Data set [10] in a line: Solubility of the compound in PBS. The data set is classed as physicochemical. As to conditions: buffer.
Data set [11] has as its system Plasma. The data set can be described thus: Fraction unbound in human plasma at 5 uM after 4 hrs by LC/MS/MS analysis. It counts as ADME, cell-free.
Data set [12] deals with Metabotropic glutamate receptor 5 (Homo sapiens) (UniProt P41594). The data set can be described thus: Negative allosteric modulation of mGlu5 receptor (unknown origin) up to 30 uM.
Data set [13] has as its target Metabotropic glutamate receptor 2 (Rattus norvegicus, UniProt P31421). The data set can be described thus: Negative allosteric modulation of rat mGlu2 receptor transfected in HEK293 cells assessed as inhibition of glutamate-induced calcium mobilization after 2.5 mins. The data set is classed as functional, cell-based.
Data set [14] deals with Plasma. The data set can be described thus: Fraction unbound in mouse plasma at 5 uM after 4 hrs by LC/MS/MS analysis. The data set is classed as ADME, cell-free.
Data set [15] relates to Plasma. The data set can be described thus: Plasma protein binding in mouse at 5 uM after 4 hrs by LC/MS/MS analysis. It counts as ADME, cell-free.
Data set [16] concerns Plasma. The data set can be described thus: Plasma protein binding in human at 5 uM after 4 hrs by LC/MS/MS analysis. It counts as ADME, cell-free.
For data set [17], the target named is Sodium-dependent dopamine transporter (Homo sapiens) (UniProt Q01959). The data set can be described thus: Binding affinity to human DAT at 10 uM by radioligand displacement assay relative to control.
In data set [18] the target is Metabotropic glutamate receptor 7 (Homo sapiens) (UniProt Q14831). The data set can be described thus: Negative allosteric modulation of mGlu7 receptor (unknown origin) up to 30 uM.
Data set [19] addresses Metabotropic glutamate receptor 1 (Homo sapiens) (UniProt Q13255). The data set can be described thus: Negative allosteric modulation of mGlu1 receptor (unknown origin) up to 30 uM.
The target in a further data set is Cytochrome P450 2C9 (Homo sapiens, UniProt P11712). The data set can be described thus: Inhibition of CYP2C9 in human liver microsomes using diclofenac as substrate incubated for 15 mins prior to NADPH addition measured after 8 mins by LC/MS/MS analysis. The data set is classed as ADME, Microsome.
Another data set is filed under the species Homo sapiens. The data set can be described thus: Selectivity ratio of IC50 for human mGlu2 receptor to IC50 for human mGlu3 receptor.

Metabotropic glutamate receptor 3, sequence (P31422 whole entry): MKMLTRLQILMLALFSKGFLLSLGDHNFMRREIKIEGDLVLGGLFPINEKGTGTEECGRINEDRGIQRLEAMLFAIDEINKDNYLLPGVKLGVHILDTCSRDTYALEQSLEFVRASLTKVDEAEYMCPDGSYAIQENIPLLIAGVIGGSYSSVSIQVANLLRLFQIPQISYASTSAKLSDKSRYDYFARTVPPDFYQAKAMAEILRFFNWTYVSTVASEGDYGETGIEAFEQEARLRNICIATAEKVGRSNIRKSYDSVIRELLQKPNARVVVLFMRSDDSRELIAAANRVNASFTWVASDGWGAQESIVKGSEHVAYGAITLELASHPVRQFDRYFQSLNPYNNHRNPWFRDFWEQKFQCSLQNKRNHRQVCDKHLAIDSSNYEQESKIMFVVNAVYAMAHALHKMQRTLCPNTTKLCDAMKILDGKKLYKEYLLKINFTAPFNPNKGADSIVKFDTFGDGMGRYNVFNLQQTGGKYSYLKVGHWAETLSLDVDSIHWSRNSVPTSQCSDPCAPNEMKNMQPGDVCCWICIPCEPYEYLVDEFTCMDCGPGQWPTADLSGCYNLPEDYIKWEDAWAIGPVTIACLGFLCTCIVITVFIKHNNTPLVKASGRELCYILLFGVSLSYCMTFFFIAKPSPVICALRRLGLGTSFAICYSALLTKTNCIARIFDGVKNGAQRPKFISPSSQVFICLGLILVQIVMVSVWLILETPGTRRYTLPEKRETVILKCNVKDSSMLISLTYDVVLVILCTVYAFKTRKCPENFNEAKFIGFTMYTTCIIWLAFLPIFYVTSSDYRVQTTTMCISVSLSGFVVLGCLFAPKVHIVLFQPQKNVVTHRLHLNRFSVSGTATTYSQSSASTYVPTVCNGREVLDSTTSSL
Metabotropic glutamate receptor 3 (Rattus norvegicus), sequence (P31422 23-879 limits assumed): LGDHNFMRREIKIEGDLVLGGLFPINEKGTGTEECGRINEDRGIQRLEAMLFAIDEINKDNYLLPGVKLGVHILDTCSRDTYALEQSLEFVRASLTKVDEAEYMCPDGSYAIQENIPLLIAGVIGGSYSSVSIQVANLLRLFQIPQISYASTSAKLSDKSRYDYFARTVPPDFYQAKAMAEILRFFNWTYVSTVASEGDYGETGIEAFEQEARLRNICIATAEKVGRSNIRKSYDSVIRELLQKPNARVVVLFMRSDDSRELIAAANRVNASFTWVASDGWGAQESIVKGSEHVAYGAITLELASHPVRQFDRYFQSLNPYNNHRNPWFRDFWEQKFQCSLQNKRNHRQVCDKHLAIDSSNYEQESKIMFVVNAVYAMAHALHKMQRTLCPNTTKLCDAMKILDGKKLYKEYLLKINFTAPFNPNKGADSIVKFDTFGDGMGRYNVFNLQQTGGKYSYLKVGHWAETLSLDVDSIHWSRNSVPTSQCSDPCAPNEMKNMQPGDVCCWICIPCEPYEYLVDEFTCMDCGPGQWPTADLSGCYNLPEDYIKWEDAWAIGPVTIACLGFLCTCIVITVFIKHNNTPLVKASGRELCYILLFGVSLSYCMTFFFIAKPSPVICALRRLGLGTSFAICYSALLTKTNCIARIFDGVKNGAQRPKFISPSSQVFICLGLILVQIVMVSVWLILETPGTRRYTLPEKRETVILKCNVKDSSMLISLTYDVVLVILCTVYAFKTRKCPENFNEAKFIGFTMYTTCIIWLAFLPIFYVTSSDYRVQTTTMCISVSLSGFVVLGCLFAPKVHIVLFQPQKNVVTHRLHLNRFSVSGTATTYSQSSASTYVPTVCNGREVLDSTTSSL
Metabotropic glutamate receptor 2, sequence (P31421 whole entry): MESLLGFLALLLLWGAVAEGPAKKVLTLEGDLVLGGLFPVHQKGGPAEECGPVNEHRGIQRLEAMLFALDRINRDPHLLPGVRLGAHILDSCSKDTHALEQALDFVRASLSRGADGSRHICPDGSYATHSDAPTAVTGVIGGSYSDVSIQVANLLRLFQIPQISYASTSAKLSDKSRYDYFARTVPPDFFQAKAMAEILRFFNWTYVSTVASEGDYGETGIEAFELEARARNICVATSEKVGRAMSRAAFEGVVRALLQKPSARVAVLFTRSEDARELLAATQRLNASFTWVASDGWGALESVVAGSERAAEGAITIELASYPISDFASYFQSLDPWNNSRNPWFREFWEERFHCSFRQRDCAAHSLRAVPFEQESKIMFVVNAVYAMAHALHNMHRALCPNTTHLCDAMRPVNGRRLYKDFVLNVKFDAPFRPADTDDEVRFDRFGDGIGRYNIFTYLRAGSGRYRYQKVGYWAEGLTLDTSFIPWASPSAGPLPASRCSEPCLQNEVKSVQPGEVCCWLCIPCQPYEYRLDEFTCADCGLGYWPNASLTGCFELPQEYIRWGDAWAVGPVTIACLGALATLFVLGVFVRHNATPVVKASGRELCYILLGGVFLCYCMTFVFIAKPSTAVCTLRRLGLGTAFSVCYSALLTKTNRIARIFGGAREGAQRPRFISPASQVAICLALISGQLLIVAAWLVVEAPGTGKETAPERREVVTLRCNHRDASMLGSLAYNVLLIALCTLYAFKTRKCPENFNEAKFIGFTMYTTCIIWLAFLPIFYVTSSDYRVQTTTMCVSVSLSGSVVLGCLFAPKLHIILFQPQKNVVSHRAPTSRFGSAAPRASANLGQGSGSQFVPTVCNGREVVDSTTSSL
Metabotropic glutamate receptor 8 (Homo sapiens), sequence (O00222 whole entry): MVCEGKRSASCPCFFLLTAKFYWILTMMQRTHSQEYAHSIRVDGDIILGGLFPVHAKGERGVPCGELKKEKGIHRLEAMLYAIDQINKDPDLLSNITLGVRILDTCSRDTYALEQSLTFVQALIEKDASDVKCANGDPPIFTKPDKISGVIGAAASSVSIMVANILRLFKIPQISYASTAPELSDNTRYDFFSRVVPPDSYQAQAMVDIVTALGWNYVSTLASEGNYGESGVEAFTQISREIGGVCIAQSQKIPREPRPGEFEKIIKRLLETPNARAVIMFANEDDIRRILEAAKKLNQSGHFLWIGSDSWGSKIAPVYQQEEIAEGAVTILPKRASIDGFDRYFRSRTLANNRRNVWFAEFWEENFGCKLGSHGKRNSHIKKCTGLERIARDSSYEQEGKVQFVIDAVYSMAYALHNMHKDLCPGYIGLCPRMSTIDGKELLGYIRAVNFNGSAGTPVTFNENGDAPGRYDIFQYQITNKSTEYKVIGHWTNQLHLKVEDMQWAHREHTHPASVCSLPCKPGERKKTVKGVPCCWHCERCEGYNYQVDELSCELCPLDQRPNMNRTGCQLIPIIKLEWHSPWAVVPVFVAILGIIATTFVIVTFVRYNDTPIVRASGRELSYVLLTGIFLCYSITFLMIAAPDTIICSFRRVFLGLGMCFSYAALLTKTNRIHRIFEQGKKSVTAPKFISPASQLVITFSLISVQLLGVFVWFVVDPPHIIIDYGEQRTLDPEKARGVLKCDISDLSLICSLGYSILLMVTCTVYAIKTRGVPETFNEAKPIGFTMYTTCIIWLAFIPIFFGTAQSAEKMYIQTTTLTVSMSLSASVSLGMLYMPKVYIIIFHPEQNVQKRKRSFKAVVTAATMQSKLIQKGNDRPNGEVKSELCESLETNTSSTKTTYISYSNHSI
Cytochrome P450 2C9, sequence (P11712 whole entry): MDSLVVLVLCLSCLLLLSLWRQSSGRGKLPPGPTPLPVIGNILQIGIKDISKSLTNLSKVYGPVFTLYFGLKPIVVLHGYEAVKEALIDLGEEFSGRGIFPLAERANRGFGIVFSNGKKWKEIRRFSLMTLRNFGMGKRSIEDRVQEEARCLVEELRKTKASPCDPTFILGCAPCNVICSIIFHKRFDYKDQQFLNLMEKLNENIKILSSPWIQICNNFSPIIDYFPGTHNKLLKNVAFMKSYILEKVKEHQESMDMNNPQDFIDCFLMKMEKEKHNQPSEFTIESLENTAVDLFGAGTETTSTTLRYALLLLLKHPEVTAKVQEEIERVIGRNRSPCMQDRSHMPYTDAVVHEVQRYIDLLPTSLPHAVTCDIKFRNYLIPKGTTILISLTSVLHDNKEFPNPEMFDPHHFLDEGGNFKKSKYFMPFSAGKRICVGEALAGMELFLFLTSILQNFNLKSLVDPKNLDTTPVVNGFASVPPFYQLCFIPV
Sodium-dependent dopamine transporter (Homo sapiens), sequence (Q01959 whole entry): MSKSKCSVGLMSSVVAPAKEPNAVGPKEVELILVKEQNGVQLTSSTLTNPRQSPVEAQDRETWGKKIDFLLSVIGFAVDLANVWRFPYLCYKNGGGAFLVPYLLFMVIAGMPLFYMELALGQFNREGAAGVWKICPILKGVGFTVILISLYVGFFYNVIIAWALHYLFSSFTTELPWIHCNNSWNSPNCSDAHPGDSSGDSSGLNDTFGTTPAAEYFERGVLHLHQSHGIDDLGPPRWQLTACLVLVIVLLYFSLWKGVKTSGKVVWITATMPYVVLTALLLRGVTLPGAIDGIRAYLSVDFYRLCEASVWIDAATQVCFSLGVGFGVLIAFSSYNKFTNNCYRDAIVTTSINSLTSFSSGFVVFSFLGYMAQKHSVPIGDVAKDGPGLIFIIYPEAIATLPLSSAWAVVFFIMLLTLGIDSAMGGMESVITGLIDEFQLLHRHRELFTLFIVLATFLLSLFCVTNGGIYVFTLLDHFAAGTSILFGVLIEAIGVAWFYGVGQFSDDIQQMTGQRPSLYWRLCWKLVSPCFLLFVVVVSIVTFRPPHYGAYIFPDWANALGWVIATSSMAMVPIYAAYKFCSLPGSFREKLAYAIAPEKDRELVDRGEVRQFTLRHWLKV

As for `COc1ccc(C#Cc2ccc(C(=O)N3CCC[C@@H](CO)C3)cc2)cn1`, the IC50 in data set [1] (read-out: IC50) is more than 10 µM.
On the same count and under the same terms, next, `O=C(c1ccc(C#Cc2ccc3c(c2)OCCO3)cc1)N1CCC[C@@H](CO)C1`: more than 10 µM.
`COc1ccc(C#Cc2ccc(C(=O)N3CCC[C@@H](O)C3)c(F)c2)cc1`: the result in [2], in [6], in data set [7], in [12], in data set [18] and in data set [19] was inactive. Further, the outcome in data set [3] and in data set [5] was Active. Further, the IC50 at Cytochrome P450 1A2 was more than 30 µM; against Cytochrome P450 2D6 it was more than 30 µM; in data set [1] (read-out: IC50) it was 0.593 µM; in data set [1] (read-out: pIC50 (converted)), 0.603 µM; in data set [13], more than 30 µM; at Cytochrome P450 2C9, more than 30 µM. In addition, the inhibition (usually the change of the read-out against control, counted positive when it falls) turned out to be 74% in data set [4] and 71% in data set [17]. The Stability entry with Liver microsomes is reported as “Unstable”. Besides, in data set [8], the Activity came to 1.9%. The Fu is given as 0.005 in the data set with Plasma [9], 0.03 with Plasma [11] and 0.027 with Plasma [14]. In addition, in [10], the solubility – broadly, the concentration that dissolves in the medium under given conditions – turned out to be 7.8 µM (≈ 2.76 µg/mL). Further, the PPB in the data set with Plasma [15] and with Plasma [16] was 97% in each case.
Consider `COc1ccc(C#Cc2ccc(C(=O)N3CCC[C@@H](CO)C3)cc2)c(F)c1F`, for which, in data set [1] (read-out: IC50), the IC50 is more than 10 µM.
Still for that read-out and setting: the same measure for `CC(C)Oc1ccc(C#Cc2ccc(C(=O)N3CCC[C@@H](CO)C3)cc2)cc1`: more than 10 µM; for `[2H]C([2H])([2H])Oc1ccc(C#Cc2ccc(C(=O)N3CCC[C@@H](O)C3)c(F)c2)cc1`: 0.45 µM.
Regarding `Clc1ccc(CN[C@H]2CCN(c3ncc(Br)cn3)C2)c(Cl)c1`, the Ratio IC50 in the data set listed under Homo sapiens was determined as 4.
In the case of `COc1ccc(C#Cc2ccc(C(=O)N3CCC(CO)C3)cc2)cc1` (stereo unspecified), the results for the IC50 in [1] (read-out: pIC50 (converted)) and in data set [13] were 7.59 µM and more than 30 µM, respectively. For the same molecule, in [8], the Activity is 0%.
As for `COc1ccc(C#Cc2ccc(C(=O)N3CCC[C@@H](CO)C3)cc2)c(F)c1`, the IC50 in [1] (read-out: IC50) was more than 10 µM.
Take `COc1ccc(C#Cc2ccc(C(=O)N3CC[C@H](O)C3)cc2)cc1`: the figures for the IC50 in [1] (read-out: pIC50 (converted)) and in [13] were 27.5 µM and more than 30 µM, respectively.
Turning to `COc1ccc(C#Cc2ccc(C(=O)N3CCC[C@@H](O)C3)cc2)cc1`, the IC50 was 0.65 µM in [1] (read-out: IC50) and more than 30 µM in [13]. Moreover, in data set [8], the Activity turned out to be 2%.
On to `O=C(c1ccc(C#Cc2ccc(OC(F)(F)F)cc2)cc1)N1CCC[C@@H](CO)C1`, for which the IC50 in data set [1] (read-out: IC50) is more than 10 µM.
Take `COc1ccc(C#Cc2ccc(C(=O)N3CC[C@@H](O)C3)cc2)cc1`: the IC50 in data set [1] (read-out: pIC50 (converted)) is 10.2 µM; in data set [13] it was more than 30 µM. Further, in data set [8], the Activity is 0%.
Taken in the same sequence, the figures for `COc1ccc(C#Cc2ccc(C(=O)N3CCCC(OC)C3)cc2)cc1` (stereo unspecified) were 5.5 µM, more than 30 µM and 0%.
For the molecule `COc1ccc(C#Cc2ccc(C(=O)N3CCCC(O)C3)cc2)cc1` (racemic), the IC50 in data set [1] (read-out: IC50) is 0.76 µM; in data set [13] it was more than 30 µM. Further, in data set [8], the Activity worked out at 0.4%.
With `CSc1ccc(C#Cc2ccc(C(=O)N3CCC[C@@H](CO)C3)cc2)cc1`, the IC50 in data set [1] (read-out: IC50) is more than 10 µM.
Still for that read-out and setting: the same measure for `O=C(c1ccc(C#Cc2ccc(Oc3ccccc3)cc2)cc1)N1CCC[C@@H](CO)C1`: more than 10 µM.
The same measure, in the same setting: next, `COc1ccc(C#Cc2ccc(C(=O)N3CCC[C@@H](CO)C3)cc2)cc1F`: more than 10 µM; `O=C(c1ccc(C#Cc2ccc(O)cc2)cc1)N1CCC[C@@H](CO)C1`: more than 10 µM.
As to `COc1ccc(C#Cc2ccc(C(=O)N3CCCC(C)(O)C3)cc2)cc1` (stereo unspecified), the figures for the IC50 in data set [1] (read-out: IC50) and in [13] were 0.711 µM and more than 30 µM, respectively. The Activity in data set [8] was -0.13%.
For the molecule `COc1ccc(C#Cc2ccc(C(=O)N3CCC[C@@H](CO)C3)cc2)cc1`, the IC50 in data set [1] (read-out: IC50) is more than 10 µM.
With `COc1ccc(C#Cc2ccc(C(=O)NC(C)CO)cc2)cc1` (stereo unspecified), the results for the IC50 in data set [1] (read-out: pIC50 (converted)) and in [13] were 7.59 µM and more than 30 µM, respectively. Further, the Activity in data set [8] is 1.6%.
With `O=C(c1ccc(C#Cc2ccc3c(c2)OCO3)cc1)N1CCC[C@@H](CO)C1`, the IC50 in [1] (read-out: IC50) is more than 10 µM.
On the same count and under the same terms, next, `[2H]C([2H])([2H])Oc1ccc(C#Cc2ccc(C(=O)N3CCC[C@@H](O)C3)cc2)cc1`: 0.31 µM; `CCOc1ccc(C#Cc2ccc(C(=O)N3CCC[C@@H](CO)C3)cc2)cc1`: more than 10 µM.
`COc1ccc(C#Cc2ccc(C(=O)N3CC4CCC(=O)C4C3)cc2)cc1` (stereo unspecified): the IC50 in data set [1] (read-out: pIC50 (converted)) is 2.75 µM; in data set [13], more than 30 µM. Also, in data set [8], the Activity was 1.6%.
With `COc1ccc(C#Cc2ccc(C(=O)N3CCC[C@@H](O)C3)cc2F)cc1`, the IC50 is 0.456 µM in data set [1] (read-out: IC50) and more than 30 µM in [13]. Moreover, in [8], the Activity was 1.64%.
With `COc1ccc(C#Cc2ccc(C(=O)N3CC4CCC(O)C4C3)cc2)cc1` (stereo unspecified), the IC50 in data set [1] (read-out: pIC50 (converted)) was 5.5 µM; in data set [13] it was more than 30 µM. In addition, the Activity in data set [8] was 1.7%.
As for `COc1ccc(-c2nnc(-c3ccc(C(=O)N4CCC[C@@H](CO)C4)cc3)o2)cc1`, the IC50 in [1] (read-out: IC50) is more than 10 µM.
Regarding `COc1ccc(C#Cc2ccc(C(=O)N3CCC[C@H](O)C3)cc2)cc1`, the IC50 in data set [1] (read-out: IC50) is 1.1 µM; in data set [13] it was more than 30 µM. The Activity in [8] stood at 1.7%.
